Biological target: T1, binding of KRAS^G12C to SOS1 (Homo sapiens, UniProt Q07889)
T1 construct: Tag1 (unspecified)
T1 sequence (Q07889 1-1333): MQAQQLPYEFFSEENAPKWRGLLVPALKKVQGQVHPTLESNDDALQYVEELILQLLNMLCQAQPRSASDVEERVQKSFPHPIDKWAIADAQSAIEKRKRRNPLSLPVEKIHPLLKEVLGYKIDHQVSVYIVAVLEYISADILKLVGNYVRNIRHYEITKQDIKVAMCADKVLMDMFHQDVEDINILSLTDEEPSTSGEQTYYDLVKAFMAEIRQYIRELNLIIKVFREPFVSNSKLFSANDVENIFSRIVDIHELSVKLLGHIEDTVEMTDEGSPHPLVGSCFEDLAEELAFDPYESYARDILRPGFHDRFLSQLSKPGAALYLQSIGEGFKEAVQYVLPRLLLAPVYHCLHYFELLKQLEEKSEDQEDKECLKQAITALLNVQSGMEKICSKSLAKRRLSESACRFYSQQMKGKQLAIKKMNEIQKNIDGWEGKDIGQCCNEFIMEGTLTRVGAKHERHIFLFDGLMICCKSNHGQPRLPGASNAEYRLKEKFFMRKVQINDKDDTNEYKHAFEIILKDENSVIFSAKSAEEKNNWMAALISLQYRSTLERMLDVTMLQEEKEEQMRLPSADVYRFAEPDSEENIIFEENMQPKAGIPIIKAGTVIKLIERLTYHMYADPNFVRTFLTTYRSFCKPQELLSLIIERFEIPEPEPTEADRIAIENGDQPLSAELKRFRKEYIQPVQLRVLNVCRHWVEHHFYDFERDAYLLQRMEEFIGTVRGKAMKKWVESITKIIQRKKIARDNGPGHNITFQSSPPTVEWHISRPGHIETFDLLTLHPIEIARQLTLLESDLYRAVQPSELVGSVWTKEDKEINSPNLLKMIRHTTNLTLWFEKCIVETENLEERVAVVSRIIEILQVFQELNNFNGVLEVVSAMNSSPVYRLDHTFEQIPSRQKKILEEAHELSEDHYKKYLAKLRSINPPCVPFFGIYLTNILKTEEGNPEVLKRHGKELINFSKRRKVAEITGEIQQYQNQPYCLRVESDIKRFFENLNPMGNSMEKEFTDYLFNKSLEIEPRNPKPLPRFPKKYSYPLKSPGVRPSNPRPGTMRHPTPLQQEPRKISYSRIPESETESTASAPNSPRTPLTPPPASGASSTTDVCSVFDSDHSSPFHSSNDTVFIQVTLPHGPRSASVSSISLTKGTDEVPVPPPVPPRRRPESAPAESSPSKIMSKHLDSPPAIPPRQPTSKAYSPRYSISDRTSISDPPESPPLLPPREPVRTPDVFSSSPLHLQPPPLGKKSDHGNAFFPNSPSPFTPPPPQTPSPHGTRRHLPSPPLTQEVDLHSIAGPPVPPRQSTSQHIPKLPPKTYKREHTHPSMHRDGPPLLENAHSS
Assay: Inhibition of the binding of KRAS^G12C to SOS1
Details: Tag1-SOS1 / Tag2-KRAS^G12C, 2 h incubation at room temperature; read-out: IC50 (nM), inhibitory activity on the binding of KRAS^G12C to SOS1
Procedure: • (1) Gradient dilution of the test compounds: 10 mM mother solution (dissolved in 100% DMSO) was added to a 384-well test plate, the final content of DMSO being 0.25%.
(2) 5 μL of Tag1-SOS1 solution was added to the test plate, and 5 μL of dilution buffer was added to the control group.
(3) 5 μL of Tag2-KRAS^G12C solution was added to the test plate.
(4) 10 μL of Anti-Tag1-Tb3+ and Anti-Tag2-XL665 detection solution were added to the test plate. The plate was centrifuged at 1000 rpm for 1 min and incubated at room temperature for 2 h.
(6) The IC50 values for the compounds were finally calculated using GraphPad Prism software, and a curve was fit and plotted.
The inhibitory activity of the compounds of the examples of the present invention on the binding of KRAS^G12C enzyme to SOS1 is shown in Table 1.

SMILES	IC50 [nM]
COc1cc2nc(C)nc(N[C@H](C)c3cc(N)cc(C(F)(F)F)c3)c2cc1OCC1(N(C)C)CC1 [Example 34, (R)—N-(1-(3-Amino-5-(trifluoromethyl)phenyl)ethyl)-6-((1-(dimethylamino)cyclopropyl)methoxy)-7-methoxy-2-methylquinazolin-4-amine]	5.4
COc1cc2nc(C)nc(N[C@H](C)c3cc(N)cc(C(F)(F)F)c3F)c2cc1OCCOC1CC1 [Example 35, (R)—N-(1-(5-Amino-2-fluoro-3-(trifluoromethyl)phenyl)ethyl)-6-(2-cyclopropoxyethyloxy)-7-methoxy-2-methylquinazolin-4-amine]	17
COc1cc2nc(C)nc(N[C@H](C)c3cc(C(F)(F)F)ccn3)c2cc1OCCOC1CC1 [Example 36, (R)-6-(2-Cyclopropoxyethyloxy)-7-methoxy-2-methyl-N-(1-(4-(trifluoromethyl)pyridin-2-yl)ethyl)quinazolin-4-amine]	> 1000
COc1cc2nc(C)nc(N[C@H](C)c3cc(C(F)(F)F)cc(N)n3)c2cc1OCCOC1CC1 [Example 38, (R)—N-(1-(6-Amino-4-(trifluoromethyl)pyridin-2-yl)ethyl)-6-(2-cyclopropoxyethyloxy)-7-m ethoxy-2-methylquinazolin-4-amine]	33
COc1cc2nc(C)nc(N[C@H](C)c3cc(N)cc(C(F)(F)F)c3)c2cc1OC[C@@H]1CCCO1 [Example 39, N—((R)-1-(3-Amino-5-(trifluoromethyl)phenyl)ethyl)-7-methoxy-2-methyl-6-(((S)-tetrahydrofuran-2-yl)methoxy)quinazolin-4-amine]	21
COc1cc2nc(C)nc(N[C@H](C)c3cc(N)cc(C(F)(F)F)c3)c2cc1OC[C@H]1CCCO1 [Example 40, N—((R)-1-(3-Amino-5-(trifluoromethyl)phenyl)ethyl)-7-methoxy-2-methyl-6-(((R)-tetrahydrofuran-2-yl)methoxy)quinazolin-4-amine]	8.2
COc1cc2nc(C)nc(N[C@H](C)c3cc(N)nc(C(F)(F)F)c3)c2cc1OCCOC1CC1 [Example 41, (R)—N-(1-(2-Amino-6-(trifluoromethyl)pyridin-4-yl)ethyl)-6-(2-cyclopropoxyethoxy)-7-met hoxy-2-methylquinazolin-4-amine]	252
COCCOc1cc2c(N[C@H](C)c3cc(N)cc(C(F)(F)F)c3)nc(C)nc2cc1OC [Example 42, (R)—N-(1-(3-Amino-5-(trifluoromethyl)phenyl)ethyl)-7-methoxy-6-(2-methoxyethoxy)-2-me thylquinazolin-4-amine]	5.6
COCC1(COc2cc3c(N[C@H](C)c4cc(N)cc(C(F)(F)F)c4)nc(C)nc3cc2OC)COC1 [Example 43, (R)—N-(1-(3-Amino-5-(trifluoromethyl)phenyl)ethyl)-7-methoxy-6-((3-(methoxymethyl)oxetan-3-yl)methoxy)-2-methylquinazolin-4-amine]	5.2
Cc1nc(N[C@H](C)c2cc(N)cc(C(F)(F)F)c2)c2cc(OCCOC3CC3)c(C(F)(F)F)cc2n1 [Example 45, (R)—N-(1-(3-Amino-5-(trifluoromethyl)phenyl)ethyl)-6-(2-cyclopropoxyethoxy)-2-methyl-7-(trifluoromethyl)quinazolin-4-amine]	167
COc1cc2nc(C)nc(N[C@H](C)c3cc(N)cc(C(F)(F)F)c3)c2cc1OCC1(OC)CC1 [Example 46, (R)—N-(1-(3-Amino-5-(trifluoromethyl)phenyl)ethyl)-7-methoxy-6-((1-methoxycyclopropyl)methoxy)-2-methylquinazolin-4-amine]	10
COc1cc2nc(C)nc(N[C@H](C)c3cc(N)cc(C(F)(F)F)c3)c2cc1OC[C@H](C)OC [Example 47]	7.4
COc1cc2nc(C)nc(N[C@H](C)c3cc(N)cc(C(F)(F)F)c3)c2cc1OCCOC1CCC1 [Example 49, (R)—N-(1-(3-Amino-5-(trifluoromethyl)phenyl)ethyl)-6-(2-cyclobutoxyethoxy)-7-methoxy-2-methylquinazolin-4-amine]	4.6
COCCOCCOc1cc2c(N[C@H](C)c3cc(N)cc(C(F)(F)F)c3)nc(C)nc2cc1OC [Example 50, (R)—N-(1-(3-Amino-5-(trifluoromethyl)phenyl)ethyl)-7-methoxy-6-(2-(2-methoxyethoxy)ethoxy)-2-methylquinazolin-4-amine]	4.2
COCCOc1cc2c(N[C@H](C)c3cc(C(F)(F)F)cc(N)n3)nc(C)nc2cc1OC [Example 51, (R)—N-(1-(6-Amino-4-(trifluoromethyl)pyridin-2-yl)ethyl)-7-methoxy-6-(2-methoxyethoxy)-2-methylquinazolin-4-amine]	24
COCCOc1cc2c(N[C@H](C)c3cc(N)cc(C(F)(F)F)n3)nc(C)nc2cc1OC [Example 52, (R)—N-(1-(4-Amino-6-(trifluoromethyl)pyridin-2-yl)ethyl)-7-methoxy-6-(2-methoxyethoxy)-2-methylquinazolin-4-amine]	31
COc1cc2nc(C)nc(N[C@H](C)c3cc(N)cc(C(F)(F)F)c3)c2cc1OCCCOC1CC1 [Example 53, (R)—N-(1-(3-Amino-5-(trifluoromethyl)phenyl)ethyl)-6-(3-cyclopropoxypropoxy)-7-methox y-2-methylquinazolin-4-amine]	3.7
CNCC1(COc2cc3c(N[C@H](C)c4cccc(C(F)(F)F)c4F)nc(C)nc3cc2OC)CC1 [Example 54, (R)—N-(1-(2-Fluoro-3-(trifluoromethyl)phenyl)ethyl)-7-methoxy-2-methyl-6-((1-((methylamino)methyl)cyclopropyl)methoxy)quinazolin-4-amine]	15
COc1cc2nc(C)nc(N[C@H](C)c3cccc(C(F)(F)F)c3F)c2cc1OCC1(CO)CC1 [Example 55, (R)-(1-(((4-((1-(2-Fluoro-3-(trifluoromethyl)phenyl)ethyl)amino)-7-methoxy-2-methylquinazolin-6-yl)oxy)methyl)cyclopropyl)methanol]	16
COCC1(COc2cc3c(N[C@H](C)c4cc(N)cc(C(F)(F)F)c4)nc(C)nc3cc2OC)CC1 [Example 56, (R)—N-(1-(3-Amino-5-(trifluoromethyl)phenyl)ethyl)-7-methoxy-6-((1-(methoxymethyl)cyclopropyl)methoxy)-2-methylquinazolin-4-amine]	9.6
[2H]C([2H])([2H])OCCOc1cc2c(N[C@H](C)c3cc(N)cc(C(F)(F)F)c3)nc(C)nc2cc1OC [Example 57, (R)—N-(1-(3-Amino-5-(trifluoromethyl)phenyl)ethyl)-7-methoxy-6-(2-(methoxy-d3)ethoxy)-2-methylquinazolin-4-amine]	5.2
COc1cc2nc(C)nc(N[C@H](C)c3cc(N)cc(C(F)(F)F)c3)c2cc1OCCOCC1CC1 [Example 58, (R)—N-(1-(3-Amino-5-(trifluoromethyl)phenyl)ethyl)-6-(2-(cyclopropylmethoxy)ethoxy)-7-methoxy-2-methylquinazolin-4-amine]	5.1
COCC(COC)Oc1cc2c(N[C@H](C)c3cc(N)cc(C(F)(F)F)c3)nc(C)nc2cc1OC [Example 59, (R)—N-(1-(3-Amino-5-(trifluoromethyl)phenyl)ethyl)-6-((1,3-dimethoxypropan-2-yl)oxy)-7-methoxy-2-methylquinazolin-4-amine]	4.7
COc1cc2nc(C)nc(N[C@H](C)c3cc(C(F)(F)F)cc(N)n3)c2cc1OCCOC1COC1 [Example 60, (R)—N-(1-(6-Amino-4-(trifluoromethyl)pyridin-2-yl)ethyl)-7-methoxy-2-methyl-6-(2-(oxetan-3-yloxy)ethoxy)quinazolin-4-amine]	18

Reference: patent US20240336606A1 (Suzhou Zelgen Biopharmaceuticals Co., Ltd., priority 2020, published 2024)
